Assay results published in patent US8580519B2, “Use of plasma HSP90 related to malignancy” (University of Maryland, Baltimore, priority 2006, dated 2013).
Like-named read-outs stand apart in the source and are kept apart here.

Experiments:
[1] = nude mice, days 1-4, 15-18 i.p.; cited from earlier work
[2] = preclinical toxicology studies; cited from earlier work
Hsp90α = details: for plasma Hsp90α at baseline versus after sorafenib alone: day -14 versus day -1, 14 day run in of daily oral sorafenib
Experimental: Human and xenograft plasma samples of 10 μL were added to sample diluent buffer and assayed in duplicate in the antibody-coated 96-well plate. After incubation at room temperature for one hour, wells were washed 6 times with washing buffer. 100 uL HRP conjugate was added to wells and incubated for one hour. Wells were washed 6 times, 100 uL TMB substrate was added to each well, and the plate was incubated for 20 minutes. Absorbance was measured at 450 nm on a plate reader.

MEXF276L cells [3] = test: Hsp90 isoforms and MMP2 in serum-free conditioned medium, Western blot; assay type: cell-based, human
Experimental: In addition, levels of matrix metalloprotease 2 (MMP2, FIG. 3B), an extracellular client protein of Hsp90α were analyzed.

MEXF276L cells [4] = test: Immunofluorescence localization of Hsp90 isoforms α and β; assay type: cell-based, human; details: sensitive melanoma cells exposed to 17AAG, time course
Experimental: (§1) Cells were treated at the respective concentrations that cause total growth inhibition (TGI) (Burger et al., 2005). […] Co-localization of proteins results in the occurrence of orange to yellow colors in merged pictures. Bar=15 μm.

MEXF276L cells [5] = test: Cell cycle distribution, apoptotic sub G1 fraction; assay type: cell-based, human; details: 17AAG at TGI
[6] = test system: MEXF276L and MEXF514L cells; test: Hsp90 expression in whole cell lysates of 17AAG sensitive and resistant melanoma cell lines; assay type: cell-based, human; details: 17AAG at TGI; responsive MEXF276L, not resistant MEXF514L
Experimental: as §1

MEXF276L xenografts = details: tumor-bearing mice, MEXF276L and MEXF514L, 24, 48, 72 hrs after 60 mg/kg/d
Experimental: Approximately 100 μl blood was available through tail vein puncture, the 72 hr time point was collected by exsanguinations/cardiac puncture.

MEXF276 xenograft model = details: 60 mg/kg/day i.p. on days 1-5 and 8-12; cited from earlier work

## CN(C)/N=N/c1[nH]cnc1C(N)=O [DTIC]
[1]
  maximal tolerated dose: 70 mg/kg/day

## COC1=C2C[C@@H](C)C[C@H](OC)[C@H](O)[C@@H](C)/C=C(\C)[C@H](OC(N)=O)[C@@H](OC)/C=C\C=C(/C)C(=O)NC(=CC1=O)C2=O [Geldanamycin]
[2]
  hepatotoxicity: severe hepatotoxicity

## CNC(=O)c1cc(Oc2ccc(NC(=O)Nc3ccc(Cl)c(C(F)(F)F)c3)cc2)ccn1 [sorafenib]
Hsp90α
  plasma Hsp90α at baseline versus after sorafenib alone: little difference in plasma Hsp90α
Hsp90α; listed as Bay 43-9006
  plasma Hsp90α at baseline versus after sorafenib alone: no effects on Hsp90α

## C=CCNC1=C2C[C@@H](C)C[C@H](OC)[C@H](O)[C@@H](C)/C=C(\C)[C@H](OC(N)=O)[C@@H](OC)/C=C\C=C(/C)C(=O)NC(=CC1=O)C2=O [17AAG, 17-allylamino, 17-demethoxygeldanamycin]
MEXF276L cells [3]
  Hsp90α and Hsp90β detected in the medium: increased detection of Hsp90α but not Hsp90β in the medium
  form of extracellular MMP2: shift of the extracellular localized MMP2 from the fully active 66 kd form to the 72 kd latent form
MEXF276L cells [4]
  localization of Hsp90α and Hsp90β: Hsp90α is lost at 2-24 hrs
MEXF276L cells [5]
  apoptotic cell debris (sub G1 fraction) compared to control cells: only seen at 48 hrs
[6]
  cytoplasmic Hsp90 level: loss of cytoplasmic Hsp90
MEXF276L xenografts
  plasma Hsp90α after treatment versus pre 17-AAG: increase in plasma Hsp90α in most cases
Hsp90α; after 17AAG administration, shrinkage in 2/3, CT attenuation consistent with tumor necrosis in 1 of 3
  evidence of clinical response in patients with increase in plasma Hsp90α: 3/3
Hsp90α; cancer patients, p=0.0287
  induction of plasma Hsp90α, pre (day -1) versus post (72 hrs, day 4) treatment: induction is significant
Hsp90α; day four, 72 hrs after first 17AAG dose, after 14 day sorafenib run in
  patients with increase in plasma Hsp90α: 3 of 7
MEXF276 xenograft model
  growth inhibition compared to control: 92%
  time of actual tumor remissions: 10 to 17 days
  tolerability: well tolerated (no animal death)
